Consider 26 compounds from US20240425482A1, “PYRROLIDINE DERIVATIVES AS DDRS INHIBITORS” (CHIESI FARMACEUTICI S.P.A., priority 2021, published 2024).

The target of one assay is DDR2 (Homo sapiens (Human), UniProt Q16832). Description: DDR2 LanthaScreen Europium Kinase Binding assay. As for the experimental part: (§1) DDR1 and DDR2 binding assays were performed using Life Technologies LanthaScreen™ Europium Kinase Binding assay. The compounds were incubated with 5 nM DDR1 (Carna Biosciences) or 5 nM DDR2 (Life Technologies) for 1 hour at rt in white 384-well OptiPlate (PerkinElmer), containing 20 nM or 10 nM Kinase Tracer 178 respectively and 2 nM Europium labelled anti-GST antibody (Life Technologies) in assay buffer (50 mM HEPES pH 7.5, 10 mM MgCI2, 1 mM EGTA and 0.01% BRIJ35). The ratio of fluorescence emission 665 nm/615 nm after excitation at 340 nm was obtained using the Tecan Spark 20M plate reader. IC50 values were determined in GraphPad Prism 7.0 software, using 4 parameter model: log(inhibitor) vs. response. IC50 values were converted in Ki using the Cheng-Prusoff equation (Ki=IC50/(1+[Tracer]/Kd).
(§2) Compounds C1 and C2 were tested in the same binding assay described above.

Another assay has as its target DDR1 (Homo sapiens (Human), UniProt Q08345). Description: DDR1 LanthaScreen Europium Kinase Binding assay. How it is done: as §1, §2
(Time-resolved FRET reads energy transfer from a long-lived donor to a nearby acceptor.)

The mark [1] stands for this setting: binding, 5 nM DDR2, 10 nM Kinase Tracer 178, 1 hour at rt, Ki from IC50 by Cheng-Prusoff, read-out: Ki DDR2.
The mark [2] stands for this setting: binding, 5 nM DDR1, 20 nM Kinase Tracer 178, 1 hour at rt, Ki from IC50 by Cheng-Prusoff, read-out: Ki DDR1.

The structures appear in SMILES notation. Read-outs that look alike come from different tables or passages of the source.

As a reminder, the Ki is the equilibrium dissociation constant of an inhibitor or competing ligand from its target.

Sequence of DDR2 (Q16832 22-855): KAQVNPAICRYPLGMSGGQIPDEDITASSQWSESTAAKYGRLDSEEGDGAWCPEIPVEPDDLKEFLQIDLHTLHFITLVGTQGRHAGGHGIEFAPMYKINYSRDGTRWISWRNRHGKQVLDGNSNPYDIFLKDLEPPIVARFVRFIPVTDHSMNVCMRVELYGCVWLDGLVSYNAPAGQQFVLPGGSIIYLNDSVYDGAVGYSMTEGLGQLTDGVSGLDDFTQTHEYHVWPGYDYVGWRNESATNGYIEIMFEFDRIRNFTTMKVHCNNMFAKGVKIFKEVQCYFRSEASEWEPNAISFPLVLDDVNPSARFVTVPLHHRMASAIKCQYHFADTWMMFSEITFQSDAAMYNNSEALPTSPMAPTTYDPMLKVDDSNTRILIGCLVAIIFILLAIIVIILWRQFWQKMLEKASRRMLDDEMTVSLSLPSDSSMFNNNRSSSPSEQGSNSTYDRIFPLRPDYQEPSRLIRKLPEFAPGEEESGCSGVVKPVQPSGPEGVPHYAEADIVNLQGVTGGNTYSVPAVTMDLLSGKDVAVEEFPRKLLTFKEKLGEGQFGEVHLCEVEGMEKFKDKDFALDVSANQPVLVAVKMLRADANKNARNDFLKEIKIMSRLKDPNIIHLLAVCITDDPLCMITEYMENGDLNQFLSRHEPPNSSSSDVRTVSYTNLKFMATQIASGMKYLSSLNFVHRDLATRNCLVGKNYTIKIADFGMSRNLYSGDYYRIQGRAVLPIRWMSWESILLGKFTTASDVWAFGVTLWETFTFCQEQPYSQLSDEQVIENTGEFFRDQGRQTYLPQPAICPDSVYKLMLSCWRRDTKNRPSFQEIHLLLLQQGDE
Sequence of DDR1 (Q08345 19-913): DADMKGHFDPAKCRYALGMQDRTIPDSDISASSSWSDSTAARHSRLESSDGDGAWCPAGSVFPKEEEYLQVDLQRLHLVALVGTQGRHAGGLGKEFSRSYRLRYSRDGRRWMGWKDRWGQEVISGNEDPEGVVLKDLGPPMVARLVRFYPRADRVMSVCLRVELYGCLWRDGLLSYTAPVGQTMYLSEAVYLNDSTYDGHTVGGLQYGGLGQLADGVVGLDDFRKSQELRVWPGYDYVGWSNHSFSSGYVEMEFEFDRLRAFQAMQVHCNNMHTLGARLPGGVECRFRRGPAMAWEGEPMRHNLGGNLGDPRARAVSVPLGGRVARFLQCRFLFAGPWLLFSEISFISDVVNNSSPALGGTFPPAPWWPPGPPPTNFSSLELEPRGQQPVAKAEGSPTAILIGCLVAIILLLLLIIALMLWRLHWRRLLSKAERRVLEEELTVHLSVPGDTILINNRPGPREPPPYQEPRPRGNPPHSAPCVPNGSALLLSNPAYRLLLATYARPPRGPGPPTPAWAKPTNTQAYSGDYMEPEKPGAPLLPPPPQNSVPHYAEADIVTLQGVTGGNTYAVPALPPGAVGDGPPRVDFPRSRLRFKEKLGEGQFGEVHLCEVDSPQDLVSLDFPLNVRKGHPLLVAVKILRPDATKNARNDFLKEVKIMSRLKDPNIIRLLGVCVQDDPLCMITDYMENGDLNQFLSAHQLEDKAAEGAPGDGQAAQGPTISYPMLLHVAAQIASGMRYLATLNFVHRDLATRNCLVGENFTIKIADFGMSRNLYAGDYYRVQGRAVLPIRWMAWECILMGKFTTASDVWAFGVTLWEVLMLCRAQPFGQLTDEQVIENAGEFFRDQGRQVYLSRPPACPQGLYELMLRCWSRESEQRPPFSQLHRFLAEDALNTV

For the compound `Cc1ccc(C(=O)Nc2cccc(C(F)(F)F)c2)cc1C1CN1c1cccnc1` (stereo not shown) [Compound C1, 4-methyl-3-(1-(pyridin-3-yl)aziridin-2-yl)-N-(3-(trifluoromethyl)phenyl)benzamide, reference compound], the Ki was determined as 305 nM on DDR2 (DDR2 Ki (nM), same binding assay, numeric values) and 174 nM at DDR1 (same binding assay, numeric values, read-out: DDR1 Ki).

As for `COCCn1cc(Nc2cncc(N3CC[C@@H](c4cc(C(=O)Nc5cccc(C(F)(F)F)c5)ccc4C)C3)c2)cn1` [Example 46, (S)-3-(1-(5-((1-(2-methoxyethyl)-1H-pyrazol-4-yl)amino)pyridin-3-yl)pyrrolidin-3-yl)-4-methyl-N-(3-(trifluoromethyl)phenyl)benzamide], the values for the Ki at DDR2 (setting [1]) and at DDR1 (setting [2]) were 10 to 25 nM and below 10 nM, respectively.

For the compound `Cc1ccc(C(=O)Nc2cccc(C(F)(F)F)c2)cc1C1CCN(c2cncc(N3CCOCC3)c2)C1` (stereo not shown) [Example 8, 4-methyl-3-(1-(5-morpholinopyridin-3-yl)pyrrolidin-3-yl)-N-(3-(trifluoromethyl)phenyl)benzamide], the Ki on DDR2 (setting [1]) is 25 to 60 nM; on DDR1 (setting [2]), below 10 nM.

Consider `Cc1ccc(C(=O)Nc2cccc(C(F)(F)F)c2)cc1[C@@H]1CCN(c2cncc(C(=O)N3CCC(F)(F)CC3)c2)C1` [Example 32, (S)-3-(1-(5-(4,4-difluoropiperidine-1-carbonyl)pyridin-3-yl)pyrrolidin-3-yl)-4-methyl-N-(3-(trifluoromethyl)phenyl)benzamide], for which the results for the Ki on DDR2 (setting [1]) and on DDR1 (setting [2]) were above 60 nM and 25 to 60 nM, respectively.

For the compound `Cc1ccc(C(=O)Nc2cccc(C(F)(F)F)c2)cc1C1CCN(c2ccnc(C(N)=O)c2)C1` (single isomer, unassigned) [Example 54, 4-(3-(2-methyl-5-((3-(trifluoromethyl)phenyl)carbamoyl)phenyl)pyrrolidin-1-yl)picolinamide], the Ki on DDR2 (setting [1]) and on DDR1 (setting [2]) was below 10 nM each time.

Consider `Cc1ccc(C(=O)Nc2cccc(C(F)(F)F)c2)cc1C1CCN(c2cncc(NCCN(C)C)c2)C1` (stereo not shown) [Example 21, 3-(1-(5-((2-(dimethylamino)ethyl)amino)pyridin-3-yl)pyrrolidin-3-yl)-4-methyl-N-(3-(trifluoromethyl)phenyl)benzamide], for which the Ki was 25 to 60 nM on DDR2 (setting [1]) and below 10 nM on DDR1 (setting [2]).

For the compound `COCCn1cc(Nc2ccc(N3CC[C@@H](c4cc(C(=O)Nc5cccc(C(F)(F)F)c5)ccc4C)C3)cn2)cn1` [Example 47, (S)-3-(1-(6-((1-(2-methoxyethyl)-1H-pyrazol-4-yl)amino)pyridin-3-yl)pyrrolidin-3-yl)-4-methyl-N-(3-(trifluoromethyl)phenyl)benzamide], the Ki fell in the range of 25 to 60 nM at DDR2 (setting [1]) and 10 to 25 nM on DDR1 (setting [2]).

As for `CC(=O)Nc1cncc(N2CC[C@@H](c3cc(C(=O)Nc4cccc(C(F)(F)F)c4)ccc3C)C2)c1` [Example 40, (S)-3-(1-(5-acetamidopyridin-3-yl)pyrrolidin-3-yl)-4-methyl-N-(3-(trifluoromethyl)phenyl)benzamide], the Ki on DDR2 (setting [1]) and at DDR1 (setting [2]) was below 10 nM in each case.

On to `COCCOc1cncc(N2CC[C@@H](c3cc(C(=O)Nc4cccc(C(F)(F)F)c4)ccc3C)C2)c1` [Example 30, (S)-3-(1-(5-(2-methoxyethoxy)pyridin-3-yl)pyrrolidin-3-yl)-4-methyl-N-(3-(trifluoromethyl)phenyl)benzamide], for which the inhibitory constant (Ki) at DDR2 (setting [1]) was 10 to 25 nM; on DDR1 (setting [2]) it was below 10 nM.

In the case of `CNc1ncc(N2CC[C@@H](c3cc(C(=O)Nc4cccc(C(F)(F)F)c4)ccc3C)C2)cn1` [Example 49, (S)-4-methyl-3-(1-(2-(methylamino)pyrimidin-5-yl)pyrrolidin-3-yl)-N-(3-(trifluoromethyl)phenyl)benzamide], the Ki on DDR2 (setting [1]) was 10 to 25 nM; at DDR1 (setting [2]), below 10 nM.

As to `Cc1ccc(C(=O)Nc2cc(CN3CCCC3)cc(C(F)(F)F)c2)cc1[C@@H]1CCN(c2cncc(C(N)=O)c2)C1` [Example 57, (S)-5-(3-(2-methyl-5-((3-(pyrrolidin-1-ylmethyl)-5-(trifluoromethyl)phenyl)carbamoyl)phenyl)pyrrolidin-1-yl)nicotinamide], the Ki at DDR2 (setting [1]) and on DDR1 (setting [2]) was below 10 nM each time.

Consider `Cc1ccc(C(=O)Nc2cccc(C(F)(F)F)c2)cc1C1CCN(c2cncc(NCCN3CCOCC3)c2)C1` (stereo not shown) [Example 22, 4-methyl-3-(1-(5-((2-morpholinoethyl)amino)pyridin-3-yl)pyrrolidin-3-yl)-N-(3-(trifluoromethyl)phenyl)benzamide], for which the Ki on DDR2 (setting [1]) is 10 to 25 nM; at DDR1 (setting [2]) it was below 10 nM.

`Cc1ccc(C(=O)Nc2cccc(C(F)(F)F)c2)cc1[C@@H]1CCN(c2cncnc2)C1` [Example 20, (S)-4-methyl-3-(1-(pyrimidin-5-yl)pyrrolidin-3-yl)-N-(3-(trifluoromethyl)phenyl)benzamide]: the Ki at DDR2 (setting [1]) and on DDR1 (setting [2]) was below 10 nM throughout.

Consider `Cc1ccc(C(=O)Nc2cccc(C(F)(F)F)c2)cc1[C@@H]1CCN(c2cnc3ccnn3c2)C1` [Example 43, (S)-4-methyl-3-(1-(pyrazolo[1,5-a]pyrimidin-6-yl)pyrrolidin-3-yl)-N-(3-(trifluoromethyl)phenyl)benzamide], for which the Ki at DDR2 (setting [1]) and on DDR1 (setting [2]) was 25 to 60 nM in each case.

Take `CNC(=O)c1cncc(N2CC[C@H](c3cc(C(=O)Nc4cccc(C(F)(F)F)c4)ccc3C)C2)c1` [Example 28, (R)-N-methyl-5-(3-(2-methyl-5-((3-(trifluoromethyl)phenyl)carbamoyl)phenyl)pyrrolidin-1-yl)nicotinamide]: the figures for the Ki on DDR2 (setting [1]) and at DDR1 (setting [2]) were 10 to 25 nM and below 10 nM, respectively.

With `Cc1ccc(C(=O)Nc2cccc(C(F)(F)F)c2)cc1C1CCN(c2cncc(N3CCN(C)CC3)c2)C1` (stereo not shown) [Example 12, 4-methyl-3-(1-(5-(4-methylpiperazin-1-yl)pyridin-3-yl)pyrrolidin-3-yl)-N-(3-(trifluoromethyl)phenyl)benzamide], the results for the Ki at DDR2 (setting [1]) and at DDR1 (setting [2]) were 10 to 25 nM and below 10 nM, respectively.

With `Cc1ccc(C(=O)Nc2cccc(C(F)(F)F)c2)cc1[C@@H]1CCN(c2ccnc3[nH]ccc23)C1` [Example 42, (S)-3-(1-(1H-pyrrolo[2,3-b]pyridin-4-yl)pyrrolidin-3-yl)-4-methyl-N-(3-(trifluoromethyl)phenyl)benzamide], the Ki on DDR2 (setting [1]) was in the range of 25 to 60 nM; on DDR1 (setting [2]) it was 10 to 25 nM.

As for `Cc1ccc(C(=O)Nc2cccc(C(F)(F)F)c2)cc1[C@H]1CCN(c2cncc(C(N)=O)c2)C1` [Example 18, (R)-5-(3-(2-methyl-5-((3-(trifluoromethyl)phenyl)carbamoyl)phenyl)pyrrolidin-1-yl)nicotinamide], the values for the Ki at DDR2 (setting [1]) and at DDR1 (setting [2]) were 10 to 25 nM and below 10 nM, respectively.

Turning to `Cc1ccc(C(=O)Nc2cccc(C(F)(F)F)c2)cc1[C@@H]1CCN(c2cncc(-c3cnn(C)c3)c2)C1` [Example 52, (S)-4-methyl-3-(1-(5-(1-methyl-1H-pyrazol-4-yl)pyridin-3-yl)pyrrolidin-3-yl)-N-(3-(trifluoromethyl)phenyl)benzamide], the Ki at DDR2 (setting [1]) and on DDR1 (setting [2]) was below 10 nM throughout.

On to `Cc1ccc(C(=O)Nc2cccc(C(F)(F)F)c2)cc1[C@@H]1CCN(c2ccc(N)nc2)C1` [Example 50, (S)-3-(1-(6-aminopyridin-3-yl)pyrrolidin-3-yl)-4-methyl-N-(3-(trifluoromethyl)phenyl)benzamide], for which the Ki is 25 to 60 nM at DDR2 (setting [1]) and below 10 nM at DDR1 (setting [2]).

Regarding `Cc1ccc(C(=O)Nc2cccc(C(F)(F)F)c2)cc1C1CCN(c2ccnc(C#N)c2)C1` (stereo not shown) [Example 24, 3-(1-(2-cyanopyridin-4-yl)pyrrolidin-3-yl)-4-methyl-N-(3-(trifluoromethyl)phenyl)benzamide], the Ki on DDR2 (setting [1]) is above 60 nM; on DDR1 (setting [2]), 25 to 60 nM.

`Cc1ccc(C(=O)Nc2cccc(C(F)(F)F)c2)cc1C1CCN(c2ccnc(C(N)=O)c2)C1` (racemic) [Example 53, 4-(3-(2-methyl-5-((3-(trifluoromethyl)phenyl)carbamoyl)phenyl)pyrrolidin-1-yl)picolinamide]: the Ki at DDR2 (setting [1]) and at DDR1 (setting [2]) was below 10 nM in each case.

Regarding `Cc1ccc(C(=O)Nc2ccc(CN3CCOCC3)c(C(F)(F)F)c2)cc1[C@@H]1CCN(c2cncc(C(N)=O)c2)C1` [Example 56, (S)-5-(3-(2-methyl-5-((4-(morpholinomethyl)-3-(trifluoromethyl)phenyl)carbamoyl)phenyl)pyrrolidin-1-yl)nicotinamide], the values for the Ki at DDR2 (setting [1]) and on DDR1 (setting [2]) were 10 to 25 nM and below 10 nM, respectively.

With `Cc1ccc(C(=O)Nc2cccc(C(F)(F)F)c2)cc1[C@@H]1CCN(c2cncc(C(=O)NCCN(C)C)c2)C1` [Example 34, (S)-N-(2-(dimethylamino)ethyl)-5-(3-(2-methyl-5-((3-(trifluoromethyl)phenyl)carbamoyl)phenyl)pyrrolidin-1-yl)nicotinamide], the Ki at DDR2 (setting [1]) and at DDR1 (setting [2]) was below 10 nM in each case.

For the compound `Cc1ccc(C(=O)Nc2cccc(C(F)(F)F)c2)cc1C1CCN(c2cccnc2)C1` (stereo not shown) [Example 2, 4-methyl-3-(1-(pyridin-3-yl)pyrrolidin-3-yl)-N-(3-(trifluoromethyl)phenyl)benzamide], the Ki at DDR2 (setting [1]) and at DDR1 (setting [2]) was below 10 nM each time.

Turning to `Cc1ccc(C(=O)Nc2cccc(C(F)(F)F)c2)cc1[C@@H]1CCN(c2cccnc2)C1` [Example 16, (S)-4-methyl-3-(1-(pyridin-3-yl)pyrrolidin-3-yl)-N-(3-(trifluoromethyl)phenyl)benzamide], the inhibition constant (Ki) on DDR2 (setting [1]) and at DDR1 (setting [2]) was below 10 nM in each case.
